Experimental data reported in patent publication US10112922B2, “Inhibitor of bruton's tyrosine kinase” (Centaurus BioPharma Co., Ltd., priority 2014, dated 2018).
Each block holds one molecule with its values, some of them ahead of it.

What was measured:
[1] = target: Btk kinase (Homo sapiens (Human), UniProt Q06187); assay: Btk kinase enzymatic activity assay (HTRF); assay type: biochemical; settings: Table 1; read-out: Btk IC50
Method: The half inhibition concentrations (IC50 values) of the compounds disclosed herein on Btk were determined at both enzymatic level and cellular level: the ability of the compounds to inhibit the activity of Btk kinase was determined in an enzymtic activity assay, and the inhibitory effect of the compounds on BCR-induced calcium flux in cells was determined in a cellular function assay.
(§1) The compounds were gradiently diluted 3 folds starting from 1 mM with 100% DMSO (totally 11 concentrations). 4 μL of each sample with a different concentration was added into 96 μL of reaction buffer (50 mM HEPES, pH 7.4, 10 mM MgCl2, 1 mM EGTA, 0.01% Tween-20, 0.005% BAS, 2 mM DTT). […] The mixture was centrifuged to mix well, followed by adding 2.5 μL of a mixture of ATP (final concentration designated as Km) and TK petide (HTRF® KinEASE™-TK, Cisbio) to initiate the reaction (total reaction volume being 10 μL). […] The enzyme activity for each compound was determined at 11 concentrations, and IC50 values were obtained by GraFit Software 6.0 (Erithacus Software).

[2] = target: ITK kinase (Homo sapiens (Human), UniProt Q08881); assay: ITK kinase enzymatic assay (same HTRF method as BTK); assay type: biochemical; settings: Table 1; read-out: Itk IC50
Sequence of ITK kinase (Q08881 whole entry): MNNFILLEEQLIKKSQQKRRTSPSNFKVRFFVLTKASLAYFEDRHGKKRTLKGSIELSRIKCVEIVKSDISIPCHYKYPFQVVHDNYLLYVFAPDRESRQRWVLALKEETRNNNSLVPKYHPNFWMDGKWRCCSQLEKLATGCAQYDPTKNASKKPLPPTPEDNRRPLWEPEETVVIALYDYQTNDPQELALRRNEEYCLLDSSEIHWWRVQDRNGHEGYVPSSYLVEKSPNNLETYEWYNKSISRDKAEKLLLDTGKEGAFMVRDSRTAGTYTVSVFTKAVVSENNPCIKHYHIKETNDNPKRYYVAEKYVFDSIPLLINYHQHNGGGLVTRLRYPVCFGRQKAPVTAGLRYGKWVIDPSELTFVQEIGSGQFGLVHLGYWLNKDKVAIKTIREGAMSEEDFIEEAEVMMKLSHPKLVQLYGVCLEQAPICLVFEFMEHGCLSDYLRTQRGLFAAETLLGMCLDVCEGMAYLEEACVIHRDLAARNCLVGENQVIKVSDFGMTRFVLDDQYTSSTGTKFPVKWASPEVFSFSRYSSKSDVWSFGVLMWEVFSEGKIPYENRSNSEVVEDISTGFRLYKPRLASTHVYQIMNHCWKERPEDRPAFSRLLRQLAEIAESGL
Method: as §1
In vitro activity in inhibiting ITK kinase was determined similar to that in respect of BTK kinase.

[3] = test system: OCI-LY-10 cells; assay: Efficacy in subcutaneously xenografted tumor model in mice; assay type: in vivo, CB-17 SCID mice
Method: SPF grade female CB-17 SCID mice (4-5 week) were used. 0.1 ml of OCI-LY-10 cells suspended in serum-free medium (containing 5×10^6 cells, 30% Matrigel) were injected subcutaneously in both the left and the right flanks of mice. Mice were grouped and numbered when the average tumor volumes were more than 100 mm3, and the body weights and tumor volumes were determined. The mice were randomly grouped according to tumor volumes, and appropriate adjustments were made so that the average body weight in each group is on the same level. Animals were dosed orally on the same day when they were grouped, and body weights and tumor volumes were measured twice a week. Relative tumor growth (T/C) and Tumor growth inhibition (TGI) were the major test indeces.
The equation for calculating the tumor volume is V=0.5×a×b^2, wherein v is the tumor volume, a and b are the length and the width of the tumor, respectively. The relative tumor volume (RTV) was calculated according to the tumor volume with the equation RTV=Vt/V0, wherein V0 was the tumor volume at the time when the animals were grouped, and Vt was the tumor volume at indicated time points. The equation for calculating the relative tumor proliferation rate was T/C (%)=TRTV/CRTV*100%. (TRTV was the RTV of treated group, and CRTV was the RTV of control group).
The equation for calculating the tumor growth inhibition rate was TGI (%)=(1−(tumor volume of the treated group−tumor volume of the treated group at the time when the animals were grouped)/(tumor volume of the control group−tumor volume of the control group at the time when the animals were grouped))*100%.

[4] = Toxicity test in mice (7-day oral administration); assay type: in vivo, CD-1 (ICR) mice; settings: for Average body weight of mice / Changes (%) in mice body weight in treated group over control group: 1000 mg/kg oral once a day
Source text: Body weights and conditions of mice were monitored every day, during which all mice were not fasting.

[5] = 1000 mg/kg oral once a day for 7 days

Sequence of Btk kinase (Q06187 whole entry): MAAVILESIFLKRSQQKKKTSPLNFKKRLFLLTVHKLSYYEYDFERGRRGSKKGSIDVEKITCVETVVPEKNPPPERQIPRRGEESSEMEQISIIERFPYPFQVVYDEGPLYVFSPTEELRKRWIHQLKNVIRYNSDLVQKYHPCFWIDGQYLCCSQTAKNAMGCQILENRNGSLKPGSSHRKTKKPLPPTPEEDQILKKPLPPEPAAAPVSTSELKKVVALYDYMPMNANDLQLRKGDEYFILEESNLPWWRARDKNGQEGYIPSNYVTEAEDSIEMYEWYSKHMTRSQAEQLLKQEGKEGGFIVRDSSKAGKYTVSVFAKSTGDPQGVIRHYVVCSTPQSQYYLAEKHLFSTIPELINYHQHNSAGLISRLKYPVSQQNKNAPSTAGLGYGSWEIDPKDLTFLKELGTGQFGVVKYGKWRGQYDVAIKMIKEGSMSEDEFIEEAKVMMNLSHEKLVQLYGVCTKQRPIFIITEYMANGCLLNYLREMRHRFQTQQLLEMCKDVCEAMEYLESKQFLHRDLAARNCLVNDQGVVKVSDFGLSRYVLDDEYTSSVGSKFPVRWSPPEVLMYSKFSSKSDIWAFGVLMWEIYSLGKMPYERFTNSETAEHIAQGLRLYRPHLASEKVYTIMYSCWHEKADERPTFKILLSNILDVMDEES

Compound: C=CS(=O)(=O)N1CCC[C@@H](n2nc(-c3ccc(Oc4ccccc4)cc3)c(C(N)=O)c2N)C1 [Example 1, (R)-5-amino-3-(4-phenoxyphenyl)-1-(1-(vinylsulfonyl)piperidin-3-yl)-1H-pyrazole-4-carboxamide]
- IC50 [1]: < 100 nM
- IC50 [2]: < 100 nM

Compound: C=CS(=O)(=O)N1CC[C@@H](n2nc(-c3ccc(Oc4ccccc4)cc3)c(C(N)=O)c2N)C1 [Example 2, (R)-5-amino-3-(4-phenoxyphenyl)-1-(1-(vinylsulfonyl)pyrrolidin-3-yl)-1H-pyrazole-4-carboxamide]
- IC50 [1]: < 100 nM
- IC50 [2]: < 100 nM

Compound: CN(C)C/C=C/C(=O)N1CC[C@@H](n2nc(-c3ccc(Oc4ccccc4)cc3)c(C(N)=O)c2N)C1 [Example 3, (R,E)-5-amino-1-(1-(4-(dimethylamino)but-2-enoyl)pyrrolidin-3-yl)-3-(4-phenoxyphenyl)-1H-pyrazole-4-carboxamide]
- IC50 [1]: < 100 nM
- IC50 [2]: > 1000 nM

Compound: NC(=O)c1c(-c2ccc(Oc3ccccc3)cc2)nn([C@@H]2CCN(C(=O)/C=C/CN3CCOCC3)C2)c1N [Example 4, (R,E)-5-amino-1-(1-(4-morpholinobut-2-enoyl)pyrrolidin-3-yl)-3-(4-phenoxyphenyl)-1H-pyrazole-4-carboxamide]
- IC50 [1]: < 100 nM
- IC50 [2]: > 1000 nM

Compound: NC(=O)c1c(-c2ccc(Oc3ccccc3)cc2)nn([C@@H]2CCN(C(=O)/C=C/CN3CCCCC3)C2)c1N [Example 5, (R,E)-5-amino-3-(4-phenoxyphenyl)-1-(1-(4-(piperidin-1-yl)but-2-enoyl)pyrrolidin-3-yl)-1H-pyrazole-4-carboxamide]
- IC50 [1]: < 100 nM
- IC50 [2]: > 1000 nM

Compound: NC(=O)c1c(-c2ccc(Oc3ccccc3)cc2)nn([C@@H]2CCN(C(=O)/C=C/CN3CCCC3)C2)c1N [Example 6, (R,E)-5-amino-3-(4-phenoxyphenyl)-1-(1-(4-(pyrrolidin-1-yl)but-2-enoyl)pyrrolidin-3-yl)-1H-pyrazole-4-carboxamide]
- IC50 [1]: < 100 nM
- IC50 [2]: > 1000 nM

Compound: C/C=C/C(=O)N1CC[C@@H](n2nc(-c3ccc(Oc4ccccc4)cc3)c(C(N)=O)c2N)C1 [Example 7, (R,E)-5-amino-1-(1-(but-2-enoyl)pyrrolidin-3-yl)-3-(4-phenoxyphenyl)-1H-pyrazole-4-carboxamide]
- IC50 [1]: < 100 nM
- TGI (%) Day 3 ([3]; 100 mg/kg PO QD): 33.27%
- TGI (%) Day 8 ([3]; 100 mg/kg PO QD): 19.00%
- TGI (%) Day 11 ([3]; 100 mg/kg PO QD): 11.28%
- IC50 [2]: > 1000 nM

Compound: CC(C)/C=C/C(=O)N1CC[C@@H](n2nc(-c3ccc(Oc4ccccc4)cc3)c(C(N)=O)c2N)C1 [Example 8, (R,E)-5-amino-1-(1-(4-methylpent-2-enoyl)pyrrolidin-3-yl)-3-(4-phenoxyphenyl)-1H-pyrazole-4-carboxamide]
- IC50 [1]: < 100 nM
- IC50 [2]: > 1000 nM

Compound: NC(=O)c1c(-c2ccc(Oc3ccccc3)cc2)nn([C@@H]2CCN(C/C=C/C(=O)O)C2)c1N [Example 10, (R,E)-4-(3-(5-amino-4-carbamoyl-3-(4-phenoxyphenyl)-1H-pyrazol-1-yl)pyrrolidin-1-yl)but-2-enoic Acid]
- IC50 [1]: < 100 nM
- IC50 [2]: > 1000 nM

Compound: NC(=O)c1c(-c2ccc(Oc3ccccc3)cc2)nn([C@@H]2CCN(C(=O)/C=C\C(=O)O)C2)c1N [Example 11, (R,Z)-4-(3-(5-amino-4-carbamoyl-3-(4-phenoxyphenyl)-1H-pyrazol-1-yl)pyrrolidin-1-yl)-4-oxobut-2-enoic Acid]
- IC50 [1]: < 100 nM
- IC50 [2]: > 1000 nM

Compound: CC#CC(=O)N1CC[C@@H](n2nc(-c3ccc(Oc4ccccc4)cc3)c(C(N)=O)c2N)C1 [Example 16, (R)-5-amino-1-(1-(but-2-ynoyl)pyrrolidin-3-yl)-3-(4-phenoxyphenyl)-1H-pyrazole-4-carboxamide]
- IC50 [1]: < 100 nM
- TGI (%) Day 3 ([3]; 50 mg/kg PO BID): 35.97%
- TGI (%) Day 8 ([3]; 50 mg/kg PO BID): 32.25%
- TGI (%) Day 11 ([3]; 50 mg/kg PO BID): 44.47%
- TGI (%) Day 3 ([3]; 100 mg/kg PO QD): 14.97%
- TGI (%) Day 8 ([3]; 100 mg/kg PO QD): 19.53%
- TGI (%) Day 11 ([3]; 100 mg/kg PO QD): 29.98%
- difference in body weight change from control group [4, 5]: < 2%
- toxicity [4, 5]: no toxicity
- Average body weight of mice ([4]; Day 1): 24.8 g
- Changes (%) in mice body weight in treated group over control group ([4]; Day 1): 100.0%
- Average body weight of mice ([4]; Day 2): 25.3 g
- Changes (%) in mice body weight in treated group over control group ([4]; Day 2): 101.1%
- Average body weight of mice ([4]; Day 3): 25.7 g
- Changes (%) in mice body weight in treated group over control group ([4]; Day 3): 100.8%
- Average body weight of mice ([4]; Day 4): 25.9 g
- Changes (%) in mice body weight in treated group over control group ([4]; Day 4): 100.6%
- Average body weight of mice ([4]; Day 5): 26.3 g
- Changes (%) in mice body weight in treated group over control group ([4]; Day 5): 99.8%
- Average body weight of mice ([4]; Day 6): 26.5 g
- Changes (%) in mice body weight in treated group over control group ([4]; Day 6): 98.5%
- Average body weight of mice ([4]; Day 7): 26.9 g
- Changes (%) in mice body weight in treated group over control group ([4]; Day 7): 98.9%
- IC50 [2]: > 1000 nM

Next, values leading:

- IC50 [1]: < 100 nM
- IC50 [2]: > 1000 nM
Compound: NC(=O)c1c(-c2ccc(Oc3ccccc3)cc2)nn([C@@H]2CCN(C(=O)/C=C/CBr)C2)c1N [Example 12, (R,E)-5-amino-1-(1-(4-bromobut-2-enoyl)pyrrolidin-3-yl)-3-(4-phenoxyphenyl)-1H-pyrazole-4-carboxamide]

- IC50 [1]: < 100 nM
- IC50 [2]: > 1000 nM
Compound: CC(=O)OC/C=C/C(=O)N1CC[C@@H](n2nc(-c3ccc(Oc4ccccc4)cc3)c(C(N)=O)c2N)C1 [Example 13, (R,E)-4-(3-(5-amino-4-carbamoyl-3-(4-phenoxyphenyl)-1H-pyrazol-1-yl)pyrrolidin-1-yl)-4-oxobut-2-en-1-yl acetate]

- IC50 [1]: < 100 nM
- IC50 [2]: > 1000 nM
Compound: CS(=O)(=O)NC/C=C/C(=O)N1CC[C@@H](n2nc(-c3ccc(Oc4ccccc4)cc3)c(C(N)=O)c2N)C1 [Example 14, (R,E)-5-amino-1-(1-(4-(methylsulfonamido)but-2-enoyl)pyrrolidin-3-yl)-3-(4-phenoxyphenyl)-1H-pyrazole-4-carboxamide]

- IC50 [1]: < 100 nM
- IC50 [2]: > 1000 nM
Compound: NC(=O)c1c(-c2ccc(Oc3ccccc3)cc2)nn([C@@H]2CCN(C(=O)/C=C/CO)C2)c1N [Example 15, (R,E)-5-amino-1-(1-(4-hydroxybut-2-enoyl)pyrrolidin-3-yl)-3-(4-phenoxyphenyl)-1H-pyrazole-4-carboxamide]

- IC50 [1]: < 100 nM
- IC50 [2]: < 100 nM
Compound: C#CC(=O)N1CC[C@@H](n2nc(-c3ccc(Oc4ccccc4)cc3)c(C(N)=O)c2N)C1 [Example 17, (R)-5-amino-3-(4-phenoxyphenyl)-1-(1-propioloylpyrrolidin-3-yl)-1H-pyrazole-4-carboxamide]

- IC50 [1]: < 100 nM
- IC50 [2]: > 1000 nM
Compound: CC#CC(=O)N[C@H]1CC[C@@H](n2nc(-c3ccc(Oc4ccccc4)cc3)c(C(N)=O)c2N)CC1 [Example 18, 5-amino-1-((1s,4s)-4-(but-2-ynamido)cyclohexyl)-3-(4-phenoxyphenyl)-1H-pyrazole-4-carboxamide]
